Results on one compound are retold here after article PMC6709486, “Safety, Tolerability, Pharmacokinetics, and Drug Interaction Potential of SPR741, an Intravenous Potentiator, after Single and Multiple Ascending Doses and When Combined with β-Lactam Antibiotics in Healthy Subjects” (Antimicrobial Agents and Chemotherapy, 2019).

Peptide text beside a SMILES is read from it.

This series is described as follows: clinical. The settings on record: human, in vivo, iv, 400 mg; for AUC(0-inf): AUC0-inf. The source says:
The drug-drug interaction study was a phase 1, single-center, multiarm, open-label, randomized, three-period crossover study. The objective was to evaluate the DDI potential and the PK of SPR741 coadministered with each of three partner antibiotics as well as the DDI and PK effects of three partner antibiotics administered alone and with SPR741. The study comprised a screening phase (day −28 to day −2), three treatment arms (day 1 to day 8 for each arm), and an end-of-study follow-up (day 9). Each subject participated in screening, one treatment arm, and the end-of-study follow-up. The maximum duration of participation for each subject was approximately 37 days. Subjects remained in the clinical unit from the day before dosing (day −1) to 24 h after the third and last dose period (day 8).
The DDI study consisted of three treatment arms with three dosing periods in each arm (days 1, 4, and 7). In random sequence, subjects received a single dose of study treatments with a 2-day washout period between each assigned treatment. In treatment arm 1, subjects received 400 mg of SPR741 i.v. over 1 h, 400 mg of SPR741 i.v. over 1 h plus 1.0 g of ceftazidime i.v. over 1 h, and 1.0 g of ceftazidime i.v. over 1 h. In treatment arm 2, subjects received 400 mg of SPR741 i.v. over 1 h, 400 mg of SPR741 i.v. over 1 h plus 4.5 g of piperacillin-tazobactam i.v. over 1 h, and 4.5 g of piperacillin-tazobactam i.v. over 1 h.
For both studies, maximum plasma concentration (Cmax), area under the concentration-time curve from time zero to the last measurable time point (AUC0-t), area under the concentration-time curve from time zero to infinity (AUC0-inf), time to maximum concentration (Tmax), terminal elimination rate constant (kel), terminal half-life (t1/2), terminal clearance (CL), and volume of distribution (V) were determined. PK parameters were determined using WinNonlin Phoenix, version 6.4.
For the SAD phase, blood samples were obtained predose (within 10 min), at 30 min following the start of infusion, at the end of infusion, and at 75, 90, 105, 120, and 150 min and 3, 4, 5, 6, 8, 10, 12, and 24 h following the start of infusion. For the MAD phase, blood was obtained predose (within 10 min), at 30 min following the start of infusion, at the end of infusion, and at 90 and 150 min and 3, 4, 5, 6, and 8 h following the start of infusion (day 1, first dose; day 14, last dose). Five additional blood samples were obtained at 10, 12, 24, 36, and 48 h following the start of infusion of the last dose (morning of day 14). For the DDI study, blood samples for determining plasma concentrations of SPR741 and each partner antibiotic were obtained predose (within −10 min), at 30 min, and at 1 h, 1 h 15 min, 1 h 30 min, 1 h 45 min, 2, 4, 8, 12, and 24 h postdose for each dose period. Plasma samples for drug concentration measurements were analyzed using a validated high-pressure liquid chromatography tandem mass spectrometry (HPLC-MS/MS) method. In brief, samples were spiked with a stable isotope-labeled internal standard and then extracted by protein precipitation before injection onto the HPLC-MS/MS system. Unique transitions were monitored for all test articles and internal standards. Plasma concentrations below the limit of quantitation were reported as 0.
In the SAD/MAD study, geometric means were calculated for AUC and Cmax values. Analyses using linear models were performed to assess dose proportionality (both single dose and multiple dose), time dependence, accumulation, and attainment of steady state (multiple dose). Dose proportionality was assessed using linear models for the SAD and MAD cohorts separately. […] Point estimates and 90% confidence intervals (CIs), using the residual mean square error obtained from the ANOVA, were constructed for the comparisons between treatments. The point and CI estimates were back-transformed to give estimates of the ratios (percentages) of the geometric LSMs and corresponding 90% CIs.

[1] abbreviates: geometric LSM, reference treatment.

The term Tmax denotes the time at which the peak concentration occurs. Usually AUC(0-inf) stands for total exposure, with the tail of the curve extrapolated. One may read the AUC as concentration integrated over time. Broadly, the clearance is the volume of plasma or blood freed of the substance per unit of time. By Cmax is commonly meant the peak of the concentration-time curve. One may read the Vd as the apparent volume that relates the amount in the body to the concentration in plasma or blood. A lower Vd goes with little distribution into tissue. Broadly, the half-life is the time needed for the level to fall by half in the phase considered. Higher therefore signals slow loss. Take `CC(=O)N[C@H](C(=O)N[C@H](CO)C(=O)N[C@H]1CCNC(=O)[C@H]([C@@H](C)O)NC(=O)[C@H](CCN)NC(=O)[C@H](CCN)NC(=O)[C@H](CC(C)C)NC(=O)[C@@H](Cc2ccccc2)NC(=O)[C@H](CCN)NC1=O)[C@@H](C)O` [SPR741] (HELM PEPTIDE1{[ac].T.[dS].[Dab].[Dab].[dF].L.[Dab].[Dab].T}$PEPTIDE1,PEPTIDE1,4:R3-10:R2$$$V2.0): the “AUC0-inf, geometric LSM, reference treatment” value is given as 96,800 h·ng/ml; the Tmax came out at 1 h; the AUC(0-inf) was determined as 90300 ng·h/mL; the peak level (Cmax) was 28100 ng/mL. Under setting [1], the AUC(0-inf) was 79300 ng·h/mL and the highest level (Cmax) was 28800 ng/mL. In addition, the AUC0-t (AUC0-t) turned out to be 89700 ng·h/mL. Where the note is “AUC0-τ, geometric LSM, reference treatment”, this compound yielded an AUC of 78700 ng·h/mL. Moreover, for the setting “CL”, the clearance is 75 mL/min. Under “V”, this compound registered a Vd of 20.6 L. The same compound gave a half-life (t1/2) of 3.2 h.
